“Also recorded” adds a separate entry of the source.
Assays:
[1] = system: Aggregibcater actynomycetemcomitans; assay: Pre-formed biofilm challenge, MBEC P&G assay, LOG10 reduction; format: cell-based, Aggregibcater actynomycetemcomitans (ATCC 43717)
Method: (§1) Sterile MBEC™ P&G plates coated with Hydroxyapatite were used for biofilm growth. The plates consist of plastic lids with 96 protruding polystyrene pegs that have each been coated with hydroxyapatite and a corresponding 96 well base into which the inoculum is placed. The bacterial inoculum for each plate is 150 μL in each well (Innovotech Inc., Edmonton, Alberta, Canada).
(§2) Using a cryogenic stock (at −70° C.), a first sub-culture of the bacterial organisms listed above was streaked out on an organism specific agar (OSA). The bacterium was incubated at appropriate growth conditions for 24-48 hours and the plate was stored wrapped in parafilm at 4° C. for the aerobic strain (Aggregibcater actynomycetemcomitans) and 21° C. in the anaerobic chamber for anaerobic strain (Porphyromonas gingivalis). From the first sub-culture, a second sub-culture was streaked out on OSA. It was incubated at appropriate growth conditions for 24-48 hours. The second sub-culture was used within 24 hours starting from the time it was first removed from incubation. Using the second sub-culture, an isolated colony was aseptically removed from the OSA plate and inoculated into 100 mL of sterile bacterial liquid growth broth. The latter was incubated at 150 rpm at appropriate growth conditions for 24-24 hour. This yielded a viable bacterial density of approximately 10^9 CFU/mL and was checked by serial dilution and plating. The inoculum was adjusted to an approximate cell density of 10^6 CFU/mL by diluting in organism specific broth (OSB). The diluted organism was vortexed for approximately 10 seconds to achieve uniform mixing of the organism. One sample (100 μL) of the diluted organism was used for an inoculum check by serially diluting and spot plating on OSA in triplicate. It should be noted that for the anaerobic microorganism, growth, sonication, serial dilution, transfer and recovery of the organism was performed under anaerobic conditions (5% H2, 10% CO2, 85% N2).
(§3) Each bacterial over-night culture was diluted 1,000× in its specific OSM. Using a micro pipette, 150 μL of inoculum was added to the appropriate wells of a 96 well plate, except for wells that served as sterility controls (SC). Sterility control wells received sterile OSB. The HA MBEC™ P&G lid was then inserted into the 96-well bottom. It should be noted that the volume of inoculum used in this step has been calibrated such that the biofilm covers a surface area that is immersed, entirely, by the volume of antimicrobials used in the challenge plate set up. The device was placed on the gyrorotary shaker in a humidified incubator and incubated at 110 rpm at the appropriate growth conditions. Porphyromonas gingivalis was incubated for 24 hours, and Aggregibcater actynomycetemcomitans was incubated for 48 hours. A triplicate sample of the inoculum was serially diluted (ten-fold). The latter served as controls used to verify the starting cell number in the inoculum. The serial 10-fold dilutions of the inoculum from 10^−7 to 10^0 were spot plated on an appropriately labeled series of agar plates. The spot plates were incubated for an appropriate period of time and scored for growth.
(§4) The biofilm growth check (GCh) pegs were broken off from the challenge plate with flamed pliers. Each peg was placed into 200 μL of neutralizer in row A of serial dilution plate. The plates were sonicated for 30 minutes. Then serial dilution and spot plating on OSA was performed, which served as a biofilm growth check.
(§5) Biofilms were tested using the specified contact times. Callenge plates were used for testing the killing activity of the tested biocidic compounds on formed biofilm and other plates to test the inhibitory effect of biofilm formation. SC wells served as sterility controls for each experiment. One challenge plate was used per growth condition and challenge time. GC is the growth control. GCh is the biofilm Growth Check. […]

[2] = system: Porphyromonas gingivalis; assay: as above; format: cell-based, Porphyromonas gingivalis (ATCC 33277)
Method: as §1, §2, §3, §4, §5

[3] = system: Aggregibcater actynomycetemcomitans; assay: Growth inhibition, LOG10 reduction; format: cell-based, Aggregibcater actynomycetemcomitans (ATCC 43717)
Method: as §2
(§6) Biofilms were tested using the specified contact times. Callenge plates were used for testing the killing activity of the tested biocidic compounds on formed biofilm and other plates to test the inhibitory effect of biofilm formation. SC wells served as sterility controls for each experiment. One challenge plate was used per growth condition and challenge time. GC is the growth control. GCh is the biofilm Growth Check.
(§7) Using a sterile 96-well microtitre plate the following was done aseptically to set up the above challenge plates. 200 μL of sterile OSM was added to wells that served as the device sterility control for the media and for biofilm growth checks. 200 μL of sterile neutralizer was added to wells that served as the neutralizer toxicity control. 100 μL of the neutralizer and 100 μL of each of the tested compounds or combinations were added to wells serving as neutralizer affectivity control. 200 μL of biocide stock solution was added to wells which served as the biocide diluent sterility control. Serial dilutions of the tested compounds and combinations in the diluents (OSM) were performed. Each freshly prepared challenge plate was aseptically covered and left to stand at room temperature for 30 minutes to equilibrate prior to use.
(§8) Following sonication of all plates, 100 μL was placed from each well of the MBEC™ plate into the first 12 empty wells of the first row of a 96 well-micro titer plate. 180 μL of sterile 0.9% saline were placed in the remaining rows. A Serial dilution (10^0-10^−7) was performed by moving 20 μL down each of the 8 rows. 10 μL were removed from each well and spot plated on prepared OSA plates. Plates were incubated at 37±1° C. and counted after approximately 24-48 hours of incubation. The data obtained was evaluated as Log 10 CFU/peg. 100 μL of the sterile neutralizer were placed in each well of the recovery plate to top up the volume back to 200 μL.
(§9) LOG10 Reduction=Mean LOG10 Growth Control−Mean LOG10 Test.

[4] = system: Porphyromonas gingivalis; assay: Growth inhibition, LOG10 reduction; format: cell-based, Porphyromonas gingivalis (ATCC 33277)
Method: as §2, §6, §7, §8, §9

[5] = system: Aggregibcater actynomycetemcomitans; assay: Planktonic MIC; format: cell-based, Aggregibcater actynomycetemcomitans (ATCC 43717); conditions: Compound A alone; 24 hours
Method: (§10) The MIC (minimum inhibitory concentration) for the compound was determined for each organism shed from the biofilm during the challenge incubation. The MIC was defined as the minimum concentration that inhibits growth of the organism.

[6] = system: Porphyromonas gingivalis; assay: Planktonic MIC; format: cell-based, Porphyromonas gingivalis (ATCC 33277); conditions: Compound A alone; 24 hours
Method: as §10

[7] = system: Aggregibcater actynomycetemcomitans; assay: Planktonic minimum bactericidal concentration (MBC); format: cell-based, Aggregibcater actynomycetemcomitans (ATCC 43717); conditions: Compound A alone; 24 hours contact
Method: (§11) After the specified contact time (24 hours), 20 μL from each well of the challenge plate were removed and placed into the corresponding wells of a fresh 96 well Nunc plate containing 180 μL OSM. The plate was incubated at 37° C. for 24 hours.

[8] = system: Porphyromonas gingivalis; assay: as above; format: cell-based, Porphyromonas gingivalis (ATCC 33277); conditions: Compound A alone; 24 hours contact
Method: as §11

[9] = system: Aggregibcater actynomycetemcomitans; assay: Biofilm MBEC; format: cell-based, Aggregibcater actynomycetemcomitans (ATCC 43717); conditions: Compound A alone
Method: (§12) MBEC is defined as the minimum concentration of test compound that inhibits growth of the biofilm. The recovery plate prepared according to the description above was incubated at 37° C. for 24 hours and read visually to determine MBEC values. A microtiter plate reader was used to obtain optical density measurements at 630 nm (OD630). Clear wells (OD630<0.1) ware evidence of biofilm eradication.

[10] = system: Porphyromonas gingivalis; assay: Biofilm MBEC; format: cell-based, Porphyromonas gingivalis (ATCC 33277); conditions: Compound A alone
Method: as §12

[11] = Compound A, all tested concentrations

With `CC(=O)N[C@@H](CS)C(=O)O` [Compound A, N-acetyl cysteine] the “Log Reduction, Biofilm, A.a.” value ([1]; Compound A 0.15%) was 0.51 log, the “Log Reduction, Biofilm, A.a.” value ([1]; Compound A 0.31%) was −0.02 log and the “Log Reduction, Biofilm, A.a.” value ([1]; Compound A 0.62%) was 0.23 log. For the same compound, the “Log Reduction, Biofilm, A.a.” value ([1]; Compound A 1.25%) was 0.36 log, the “Log Reduction, Biofilm, A.a.” value ([1]; Compound A 2.50%) was −0.01 log and the “Log Reduction, Biofilm, A.a.” value ([1]; Compound A 5%) was 0.39 log. For the same compound, the “Log Reduction, Biofilm, A.a.” value ([1]; Compound A 10%) was 3.02 log, the “Log Reduction, Biofilm, A.a.” value ([1]; Compound A 20%) was 3.25 log and the “Log Reduction, Biofilm, P. gingivalis” value ([2]; Compound A 0.15%) was 0.11 log. The “Log Reduction, Biofilm, P. gingivalis” value ([2]; Compound A 0.31%) was 0.07 log, the “Log Reduction, Biofilm, P. gingivalis” value ([2]; Compound A 0.62%) was −0.07 log and the “Log Reduction, Biofilm, P. gingivalis” value ([2]; Compound A 1.25%) was −0.18 log. For the same compound, the “Log Reduction, Biofilm, P. gingivalis” value ([2]; Compound A 2.50%) was 0.13 log, the “Log Reduction, Biofilm, P. gingivalis” value ([2]; Compound A 5%) was −0.18 log and the “Log Reduction, Biofilm, P. gingivalis” value ([2]; Compound A 10%) was −0.17 log. For the same compound, the “Log Reduction, Biofilm, P. gingivalis” value ([2]; Compound A 20%) was 0.13 log, the “Reducing preformed biofilm of P. gingivalis (in words)” value [2, 11] was “ineffective; also recorded: No inhibition or biofilm reduction” and the “Log Reduction, Growth Inhibition, A.a.” value ([3]; Compound A 0.15%) was 0.24 log. For the same compound, the “Log Reduction, Growth Inhibition, A.a.” value ([3]; Compound A 0.31%) was 0.28 log, the “Log Reduction, Growth Inhibition, A.a.” value ([3]; Compound A 0.62%) was 0.74 log and the “Log Reduction, Growth Inhibition, A.a.” value ([3]; Compound A 1.25%) was 1.04 log. For the same compound, the “Log Reduction, Growth Inhibition, A.a.” value ([3]; Compound A 2.50%) was 1.13 log, the “Log Reduction, Growth Inhibition, A.a.” value ([3]; Compound A 5%) was 2.05 log and the “Log Reduction, Growth Inhibition, A.a.” value ([3]; Compound A 10%) was 6.34 log. The “Log Reduction, Growth Inhibition, A.a.” value ([3]; Compound A 20%) was 6.34 log, the “Inhibiting growth of A.a. (in words)” value ([3]; Compound A, only at 20% and 10% of the stock concentration) was “effective at inhibiting growth” and the “Log Reduction, Growth Inhibition, P. gingivalis” value ([4]; Compound A 0.15%) was −0.89 log. The “Log Reduction, Growth Inhibition, P. gingivalis” value ([4]; Compound A 0.31%) was −0.05 log, the “Log Reduction, Growth Inhibition, P. gingivalis” value ([4]; Compound A 0.62%) was 0.35 log and the “Log Reduction, Growth Inhibition, P. gingivalis” value ([4]; Compound A 1.25%) was 0.44 log. The “Log Reduction, Growth Inhibition, P. gingivalis” value ([4]; Compound A 2.50%) was 0.11 log, the “Log Reduction, Growth Inhibition, P. gingivalis” value ([4]; Compound A 5%) was −0.19 log and the “Log Reduction, Growth Inhibition, P. gingivalis” value ([4]; Compound A 10%) was −0.71 log. For the same compound, the “Log Reduction, Growth Inhibition, P. gingivalis” value ([4]; Compound A 20%) was 0.36 log, the “Inhibiting growth of P. gingivalis (in words)” value [4, 11] was “ineffective; also recorded: No inhibition” and the “MIC Cut-off, A.a.” value [5] was 10%. For the same compound, the “MIC Cut-off, P. gingivalis” value [6] was greater than 20%, the “MBC Cut-off, A.a.” value [7] was greater than 20% and the “MBC Cut-off, P. gingivalis” value [8] was greater than 20%. For the same compound, the “MBEC Cut-off, A.a.” value [9] was greater than 20% and the “MBEC Cut-off, P. gingivalis” value [10] was greater than 20%.

From US20160279043A1, “COMBINATIONS OF N-ACETYL CYSTEINE DERIVATIVES AND CRANBERRY POLYPHENOLS IN COMPOSITIONS AND METHODS FOR PREVENTING AND TREATING PERIODONTAL DISEASES AND PERI-IMPLATITIS” (DENTALMED PHARM HOLDING LTD., priority 2013, published 2016)
